This series deals with P388 leukemia. The conditions noted are these: for ILS (maximum increase in lifespan): ip P388 leukemia mice, ip days 1-5, slash-separated figures are separate experiments, compound 2: 35 experiments.
Where [1] appears, read: Table B, B6D2F1 female mice, ip qD × 5.

Where “and” joins values, the source holds several entries; their conditions need not be identical. Equal entries are not always repeated. Where two headings read alike, the source gives them in different places.

As for `CC(C(C)[PH]([Au][Cl])(c1ccccc1)c1ccccc1)[PH]([Au][Cl])(c1ccccc1)c1ccccc1` [Compound 11, μ-[(-) (2S,3S)-2,3-Bis(Diphenylphosphino)Butane]Bis[Chlorogold(I)]], under “mouse, in vivo, ip”, the “MTD (maximally tolerated dose)” value turned out to be 6 mg/kg.

Turning to `O=[N+]([O-])[O][Ag][PH](CC[PH]([Ag][O][N+](=O)[O-])(c1ccccc1)c1ccccc1)(c1ccccc1)c1ccccc1` [Compound 13, μ-[1,2-Bis(Diphenylphosphino)Ethane]Bis[Nitratosilver(I)]], the “MTD (maximally tolerated dose)” value under setting [1] was 6 mg/kg. Besides, where the note is “Table B”, the “ILS (maximum increase in lifespan)” value was 45% and 30%. For `FC(F)(F)c1ccc([PH](CC[PH]([Au][Cl])(c2ccc(C(F)(F)F)cc2)c2ccc(C(F)(F)F)cc2)([Au][Cl])c2ccc(C(F)(F)F)cc2)cc1` [Compound 29], the “MTD (maximally tolerated dose)” value under setting [1] was found to be 8 mg/kg. Further, the “ILS (maximum increase in lifespan)” value (Table B) was 37% and 44%. As for `Fc1cccc([PH](CC[PH]([Au][Cl])(c2cccc(F)c2)c2cccc(F)c2)([Au][Cl])c2cccc(F)c2)c1` [Compound 26, μ-[1,2-Bis[Bis(3-Fluorophenyl)Phosphino]Ethane]Bis [Chlorogold (I)]], the “MTD (maximally tolerated dose)” value under setting [1] amounted to 8 mg/kg. For the same compound, for the setting “Table B”, the “ILS (maximum increase in lifespan)” value is 60% and 55%. Turning to `[Cl][Au][PH](C=C[PH]([Au][Cl])(c1ccccc1)c1ccccc1)(c1ccccc1)c1ccccc1` [Compound 8, μ-[Trans-1,2-Bis(Diphenylphosphino)Ethylene]Bis[Chlorogold(I)]], the “MTD (maximally tolerated dose)” value under setting [1] is on record as 24 mg/kg. Moreover, the “ILS (maximum increase in lifespan)” value (Table B) is 33% and 36%. As for `CSc1ccc([PH](CC[PH]([Au][Cl])(c2ccc(SC)cc2)c2ccc(SC)cc2)([Au][Cl])c2ccc(SC)cc2)cc1` [Compound 30, μ-[1,2-Bis[Bis(4-Methylthiophenyl)Phosphino]ethane]-Bis[chlorogold(I)]], the “MTD (maximally tolerated dose)” value under setting [1] is on record as 8 mg/kg. Besides, under “Table B”, the “ILS (maximum increase in lifespan)” value was 37% and 65%. As to `CCOC(=O)C(N)C[S][Au][PH](CC[PH]([Au][S]CC(N)C(=O)OCC)(c1ccccc1)c1ccccc1)(c1ccccc1)c1ccccc1` (stereo not shown) [Compound 20], the “MTD (maximally tolerated dose)” value under setting [1] stood at 6 mg/kg. Also, where the note is “Table B”, the “ILS (maximum increase in lifespan)” value was 50% and 56%. As for `Fc1c(F)c(F)c([PH](CC[PH]([Au][Cl])(c2c(F)c(F)c(F)c(F)c2F)c2c(F)c(F)c(F)c(F)c2F)([Au][Cl])c2c(F)c(F)c(F)c(F)c2F)c(F)c1F` [Compound 27, μ-[1,2-Bis[bis(2,3,4,5,6-pentafluorophenyl)phosphine]ethane]-bis[chlorogold(I)]], the “MTD (maximally tolerated dose)” value under setting [1] is 16 mg/kg. In addition, the “ILS (maximum increase in lifespan)” value (Table B) is 30% and 25%.

As for “μ-[1,2-Bis[Bis(2-Methylthiophenyl)Phosphino]Ethane]Bis[Chlorogold(I)] [Compound 28]”, the “MTD (maximally tolerated dose)” value under setting [1] was 8 mg/kg. `Fc1ccc([PH](CC[PH]([Au][Cl])(c2ccc(F)cc2)c2ccc(F)cc2)([Au][Cl])c2ccc(F)cc2)cc1` [Compound 25, μ-[1,2-Bis[Bis(4-Fluorophenyl)Phosphino]Ethane]Bis-[Chlorogold (I)]]: under setting [1], the “MTD (maximally tolerated dose)” value worked out at 8 mg/kg. Moreover, under “Table B”, the “ILS (maximum increase in lifespan)” value was 80% and 75%. For the compound `[2H]c1c([2H])c([2H])c([PH](CC[PH]([Au][Cl])(c2c([2H])c([2H])c([2H])c([2H])c2[2H])c2c([2H])c([2H])c([2H])c([2H])c2[2H])([Au][Cl])c2c([2H])c([2H])c([2H])c([2H])c2[2H])c([2H])c1[2H]` [Compound 31, μ-[1,2-Bis[di(phenyl-d5)phosphino]ethane]bis-[chlorogold(I)]], the “MTD (maximally tolerated dose)” value under setting [1] worked out at 6 mg/kg. Besides, under “Table B”, the “ILS (maximum increase in lifespan)” value was 40% and 65%. Regarding `C[C@H](C[PH]([Au][Cl])(c1ccccc1)c1ccccc1)[PH]([Au][Cl])(c1ccccc1)c1ccccc1` [Compound 10, μ-[(R)-(+)-1,2Bis(Diphenylphosphino)Propane]Bis[Chlorogold(I)]], under setting [1], the “MTD (maximally tolerated dose)” value came out at 6 mg/kg. Further, for the setting “Table B”, the “ILS (maximum increase in lifespan)” value was 50% and 25%.

These data come from patent publication US4857549A, “Antitumor compounds” (priority 1988, dated 1989).
